Biological target: GCN2 (Homo sapiens, UniProt Q9P2K8)
Test: GCN2 enzyme assay (TR-FRET Lanthascreen, phosphorylation of GFP-eIF2alpha)
Type: biochemical
Conditions: 10 μM ATP, 80 nM GFP-eIF2alpha, 30 nM GCN2, room temperature
Description: GCN2: Assay principle & conditions
This assay can quantificate the activity of the serin kinase GCN2 (general control non-derepressible-2).
This kinase is involved in the stress metabolism of cells. It is activated upon starvation (amino acid depletion). Its natural substrate is eIF2a (eukaryotic initiation factor 2 alpha subunit), a translation factor, which gets activated (phosphorylated) by GCN2 in case of an amino acid bottleneck in the cells. This in turn leads to a halt of the protein synthesis. Inhibition of GCN2 results in stopping this mechanism: The cell can not stop protein production upon “starvation” stress.
The assay is run in two steps: the enzymatic reaction and the detection step. In the first step GCN2 is incubated with 10 μM ATP and 80 nM of the GFP-labelled substrate eIF2alpha at room temperature.
The enzymatic reaction is stopped by addition of EDTA. The amount of phosphorylated eIF2alpha is determined by TR-FRET (Lanthascreen): A complex is formed consisting of antibody and GFP labelled phospho-eIF2a, which allows a FRET upon exitation at 340 nm.
The GCN2-activity is directly proportional to the ratio of fluorescence units at the emission wavelengthh 520 nm (phosphopeptide-sensitive wavelength=emission of GFP) to the units at 495 nm (reference wavelength=emission of Terbium-chelate).
Final Concentrations in the Enzymatic Reaction

GCN2, sequence (Q9P2K8 whole entry, species assumed): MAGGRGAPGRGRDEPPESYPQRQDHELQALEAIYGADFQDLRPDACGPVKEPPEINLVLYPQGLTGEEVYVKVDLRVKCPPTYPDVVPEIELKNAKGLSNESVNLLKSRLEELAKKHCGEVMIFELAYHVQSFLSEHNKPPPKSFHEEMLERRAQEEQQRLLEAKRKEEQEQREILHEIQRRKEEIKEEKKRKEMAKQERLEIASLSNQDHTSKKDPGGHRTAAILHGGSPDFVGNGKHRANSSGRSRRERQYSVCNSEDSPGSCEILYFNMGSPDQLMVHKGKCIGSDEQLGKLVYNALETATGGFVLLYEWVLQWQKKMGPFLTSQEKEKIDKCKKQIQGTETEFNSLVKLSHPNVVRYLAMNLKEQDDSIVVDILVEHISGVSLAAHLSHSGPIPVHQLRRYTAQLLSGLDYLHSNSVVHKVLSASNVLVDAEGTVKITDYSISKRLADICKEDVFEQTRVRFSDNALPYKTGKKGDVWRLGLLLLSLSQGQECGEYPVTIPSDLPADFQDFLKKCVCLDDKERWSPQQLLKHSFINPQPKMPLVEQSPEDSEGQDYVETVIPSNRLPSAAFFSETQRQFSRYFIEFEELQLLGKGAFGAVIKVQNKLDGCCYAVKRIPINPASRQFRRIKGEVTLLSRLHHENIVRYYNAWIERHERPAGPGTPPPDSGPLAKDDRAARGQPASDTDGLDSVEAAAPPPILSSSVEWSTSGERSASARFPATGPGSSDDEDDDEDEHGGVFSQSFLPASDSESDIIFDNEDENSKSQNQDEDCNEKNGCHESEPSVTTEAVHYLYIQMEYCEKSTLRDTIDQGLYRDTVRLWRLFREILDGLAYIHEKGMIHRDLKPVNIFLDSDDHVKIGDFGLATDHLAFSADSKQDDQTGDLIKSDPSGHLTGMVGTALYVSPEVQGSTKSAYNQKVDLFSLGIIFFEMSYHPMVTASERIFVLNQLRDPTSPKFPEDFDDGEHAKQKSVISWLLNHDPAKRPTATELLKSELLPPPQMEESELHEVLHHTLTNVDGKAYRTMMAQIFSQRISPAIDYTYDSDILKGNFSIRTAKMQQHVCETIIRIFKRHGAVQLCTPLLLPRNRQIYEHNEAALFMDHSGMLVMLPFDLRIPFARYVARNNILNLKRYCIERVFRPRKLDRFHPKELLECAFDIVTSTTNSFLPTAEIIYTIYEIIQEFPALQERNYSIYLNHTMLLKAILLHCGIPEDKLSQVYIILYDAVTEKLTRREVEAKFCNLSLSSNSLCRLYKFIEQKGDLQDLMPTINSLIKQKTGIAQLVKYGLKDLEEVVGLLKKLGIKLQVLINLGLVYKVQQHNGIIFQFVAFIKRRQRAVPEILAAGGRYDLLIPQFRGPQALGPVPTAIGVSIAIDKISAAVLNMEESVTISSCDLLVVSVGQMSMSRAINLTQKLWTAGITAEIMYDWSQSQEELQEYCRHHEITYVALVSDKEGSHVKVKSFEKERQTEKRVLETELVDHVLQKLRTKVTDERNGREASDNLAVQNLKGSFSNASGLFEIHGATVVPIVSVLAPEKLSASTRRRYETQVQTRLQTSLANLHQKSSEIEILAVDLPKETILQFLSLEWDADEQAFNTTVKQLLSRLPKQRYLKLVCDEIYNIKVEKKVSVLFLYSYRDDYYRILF

| Compound | IC50 [nM] |
| --- | --- |
| COc1ccc(-n2nnc3cnc(Nc4ccn(C)n4)nc32)cc1 [Compound A2, [3-(4-methoxy-phenyl)-3H-[1,2,3]triazolo[4,5-d]pyrimidin-5-yl]-(1-methyl-1H-pyrazol-3-yl)-amine] | 3000 to 50000 |
| CCOc1ccc(-n2nnc3cnc(Nc4cn[nH]c4)nc32)cc1 [Compound A5, [3-(4-ethoxy-phenyl)-3H-[1,2,3]triazolo[4,5-d]pyrimidin-5-yl]-(1H-pyrazol-4-yl)-amine] | < 300 |
| CCOc1ccc(-n2nnc3cnc(Nc4cnn(C5CCNCC5)c4)nc32)cc1 [Compound A7, [3-(4-Ethoxy-phenyl)-3H-[1,2,3]triazolo[4,5-d]pyrimidin-5-yl]-(1-piperidin-4-yl-1H-pyrazol-4-yl)-amine] | < 300 |
| COCCCn1cc(Nc2ncc3nnn(-c4ccc(OC)cc4)c3n2)cn1 [Compound A9, [3-(4-methoxy-phenyl)-3H-[1,2,3]triazolo[4,5-d]pyrimidin-5-yl]-[1-(3-methoxy-propyl)-1H-pyrazol-4-yl]-amine] | 300 to 3000 |
| COc1ccc(-n2nnc3cnc(Nc4cnn(Cc5ccccc5)c4)nc32)cc1 [Compound A10, (1-benzyl-1H-pyrazol-4-yl)-[3-(4-methoxy-phenyl)-3H-[1,2,3]triazolo[4,5-d]pyrimidin-5-yl]-amine] | 3000 to 50000 |
| COc1ccc(-n2nnc3cnc(/N=C4/N=C(C)CO4)nc32)cc1 [Compound A12, [3-(4-methoxy-phenyl)-3H-[1,2,3]triazolo[4,5-d]pyrimidin-5-yl]-[4-methyl-5H-oxazol-(2Z)-ylidene]-amine] | 3000 to 50000 |
| CCCCOc1ccc(-n2nnc3cnc(Nc4cnn(C5CCN(C)CC5)c4)nc32)cn1 [Compound A45, [3-(6-butoxy-pyridin-3-yl)-3H-[1,2,3]triazolo[4,5-d]pyrimidin-5-yl]-[1-(1-methyl-piperidin-4-yl)-1H-pyrazol-4-yl]-amine] | 300 to 3000 |
| CCCCOc1ccc(-n2nnc3cnc(Nc4cnn(C5CCOCC5)c4)nc32)cn1 [Compound A47, [3-(6-butoxy-pyridin-3-yl)-3H-[1,2,3]triazolo[4,5-d]pyrimidin-5-yl]-[1-(tetrahydro-pyran-4-yl)-1H-pyrazol-4-yl]-amine] | 300 to 3000 |
| CC(C)(C)OCCn1cc(Nc2ncc3nnn(-c4ccc(Cl)c(F)c4)c3n2)cn1 [Compound A53, [1-(2-tert-butoxy-ethyl)-1H-pyrazol-4-yl]-[3-(4-chloro-3-fluoro-phenyl)-3H-[1,2,3]triazolo[4,5-d]pyrimidin-5-yl]-amine] | 300 to 3000 |
| CCCCOc1ccc(-n2nnc3cnc(Nc4cnn(CCC5CCNCC5)c4)nc32)cn1 [Compound A55, [3-(6-butoxy-pyridin-3-yl)-3H-[1,2,3]triazolo[4,5-d]pyrimidin-5-yl]-[1-(2-piperidin-4-yl-ethyl)-1H-pyrazol-4-yl]-amine] | 300 to 3000 |

Second part, the compound after the results:

| IC50 [nM] | Compound |
| --- | --- |
| 300 to 3000 | CC(=O)Nc1ccc(-n2nnc3cnc(Nc4cnn(C[C@@H]5C[C@H]5CO)c4)nc32)cn1 (relative stereo) [Compound A59, N-(5-{5-[1-((trans)-2-hydroxymethyl-cyclopropylmethyl)-1H-pyrazol-4-ylamino]-[1,2,3]triazolo[4,5-d]pyrimidin-3-yl}-pyridin-2-yl)-acetamide] |
| 300 to 3000 | Nc1ccc(-n2nnc3cnc(Nc4cnn(C[C@@H]5C[C@H]5CO)c4)nc32)cn1 (relative stereo) [Compound A60, ((trans)-2-{4-[3-(6-amino-pyridin-3-yl)-3H-[1,2,3]triazolo[4,5-d]pyrimidin-5-ylamino]-pyrazol-1-ylmethyl}-cyclopropyl)-methanol] |
| < 300 | OC[C@@H]1C[C@H]1Cn1cc(Nc2ncc3nnn(-c4ccc5nccnc5c4)c3n2)cn1 (relative stereo) [Compound A104, {(trans)-2-[4-(3-quinoxalin-6-yl-3H-[1,2,3]triazolo[4,5-d]pyrimidin-5-ylamino)-pyrazol-1-ylmethyl]-cyclopropyl}-methanol] |
| < 300 | COc1ccc(-n2nnc3cnc(Nc4cnn(C5CCOCC5)c4)nc32)cc1 [Compound A13, [3-(4-methoxy-phenyl)-3H-[1,2,3]triazolo[4,5-d]pyrimidin-5-yl]-[1-(tetrahydro-pyran-4-yl)-1H-pyrazol-4-yl]-amine] |
| < 300 | COc1ccc(-n2nnc3cnc(Nc4cnn(CCN5CCCC5)c4)nc32)cc1 [Compound A14, [3-(4-methoxy-phenyl)-3H-[1,2,3]triazolo[4,5-d]pyrimidin-5-yl]-[1-(2-pyrrolidin-1-yl-ethyl)-1H-pyrazol-4-yl]-amine] |
| < 300 | CCOc1ccc(-n2nnc3cnc(Nc4cnn(C5CCOCC5)c4)nc32)cc1 [Compound A15, [3-(4-ethoxy-phenyl)-3H-[1,2,3]triazolo[4,5-d]pyrimidin-5-yl]-[1-(tetrahydro-pyran-4-yl)-1H-pyrazol-4-yl]-amine] |
| 3000 to 50000 | COc1ccc(-n2nnc3cnc(Nc4ncn[nH]4)nc32)cc1 [Compound A17, [3-(4-methoxy-phenyl)-3H-[1,2,3]triazolo[4,5-d]pyrimidin-5-yl]-(2H-[1,2,4]triazol-3-yl)-amine] |
| < 300 | COc1ccc(-n2nnc3cnc(Nc4cnn(C)c4)nc32)cc1 [Compound A18, [3-(4-methoxy-phenyl)-3H-[1,2,3]triazolo[4,5-d]pyrimidin-5-yl]-(1-methyl-1H-pyrazol-4-yl)-amine] |
| < 300 | CCOc1ccc(-n2nnc3cnc(Nc4cnn([C@H]5CC[C@@H](O)CC5)c4)nc32)cc1 [Compound A19, 4-{4-[3-(4-ethoxy-phenyl)-3H-[1,2,3]triazolo[4,5-d]pyrimidin-5-ylamino]-pyrazol-1-yl}-cyclohexanol] |
| < 300 | Fc1ccc(-n2nnc3cnc(Nc4cnn(C5CCOCC5)c4)nc32)cc1 [Compound A20, [3-(4-fluoro-phenyl)-3H-[1,2,3]triazolo[4,5-d]pyrimidin-5-yl]-[1-(tetrahydro-pyran-4-yl)-1H-pyrazol-4-yl]-amine] |
| < 300 | Cn1cc(Nc2ncc3nnn(-c4cnn(C)c4)c3n2)cn1 [Compound A21, (1-methyl-1H-pyrazol-4-yl)-[3-(1-methyl-1H-pyrazol-4-yl)-3H-[1,2,3]triazolo[4,5-d]pyrimidin-5-yl]-amine] |
| 300 to 3000 | COc1ccc(-n2nnc3cnc(Nc4nc(-c5ccc(NC(C)=O)cc5)cs4)nc32)cc1 [Compound A42, N-[4-[2-[[3-(4-methoxyphenyl)triazolo[4,5-d]pyrimidin-5-yl]amino]thiazol-4-yl]phenyl]acetamide] |
| < 300 | O=C1CCCN1c1ccc(-n2nnc3cnc(Nc4cnn(C5CCOCC5)c4)nc32)cc1 [Compound A43, 1-[4-[5-[(1-tetrahydropyran-4-ylpyrazol-4-yl)amino]triazolo[4,5-d]pyrimidin-3-yl]phenyl]pyrrolidin-2-one] |
| < 300 | COCCCn1cc(Nc2ncc3nnn(-c4ccc(Cl)c(F)c4)c3n2)cn1 [Compound A50, [3-(4-chloro-3-fluoro-phenyl)-3H-[1,2.3]triazolo[4,5-d]pyrimidin-5-yl]-[1-(3-methoxy-propyl)-1H-pyrazol-4-yl]-amine] |
| < 300 | CN1CCC(n2cc(Nc3ncc4nnn(-c5cnc6ccccc6c5)c4n3)cn2)CC1 [Compound A52, [1-(1-methyl-piperidin-4-yl)-1H-pyrazol-4-yl]-(3-quinolin-3-yl-3H-[1,2,3]triazolo[4,5-d]pyrimidin-5-yl)-amine] |

From patent US9409914B2, “Triazolo[4,5-d]pyrimidine derivatives” (Merck Patent GmbH, priority 2012, dated 2016)
